# Legend:
# Type in all cases: in vivo
# [1] = system: barnyardgrass (Echinochloa crus-galli); assay: Test B flooded paddy; details: Echinochloa crus-galli, 336 h; 250 g ai/ha, Flood, 13 to 15 days, scale 0 (no effect) to 100 (complete control); read-out: Plant response rating, Barnyardgrass
# Method in brief: (§1)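 Pots were flooded to 3 cm above the soil surface at treatment, compound applied directly to the paddy water, and that depth held throughout. Plants were kept in a greenhouse for 13 to 15 days, then visually rated against untreated controls.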
# [2] = system: ducksalad (Heteranthera limosa); assay: Test B flooded paddy; details: Heteranthera limosa, 336 h; 250 g ai/ha, Flood, 13 to 15 days, scale 0 (no effect) to 100 (complete control); read-out: Plant response rating, Ducksalad
# Method in brief: as §1
# [3] = system: rice (Oryza sativa); assay: Test B flooded paddy; details: Oryza sativa, 336 h; 250 g ai/ha, Flood, 13 to 15 days, scale 0 (no effect) to 100 (complete control); read-out: Plant response rating, Rice
# Method in brief: as §1
# [4] = system: sedge, umbrella (small-flower umbrella sedge, Cyperus difformis); assay: Test B flooded paddy; details: Cyperus difformis, 336 h; 250 g ai/ha, Flood, 13 to 15 days, scale 0 (no effect) to 100 (complete control); read-out: Plant response rating, Sedge, Umbrella
# Method in brief: as §1
# [5] = system: barnyardgrass (Echinochloa crus-galli); assay: Test A preemergence; details: Echinochloa crus-galli, pre-emergence, 240 h, 0 to 100 scale, read-out: Plant response rating, Barnyardgrass
# Method in brief: (§2)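 Greenhouse pot test, loam/sand soil. Formulation: non-phytotoxic solvent mix plus surfactant. Pre: directed spray onto soil after sowing. Post: plants at 1–2 leaf, 2–10 cm. Rated visually vs untreated controls at ~10 d, 0 (no effect) to 100 (complete control).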
# [6] = system: corn (Zea mays); assay: Test A preemergence; details: 0 to 100 scale
# Method in brief: as §2
# [7] = system: giant foxtail (Setaria faberii); assay: Test A preemergence; details: Setaria faberi, pre-emergence, 240 h, 0 to 100 scale, read-out: Plant response rating, Foxtail, Giant
# Method in brief: as §2
# [8] = system: large (Lg) crabgrass (Digitaria sanguinalis); assay: Test A preemergence; details: 0 to 100 scale
# Method in brief: as §2
# [9] = system: morningglory (Ipomoea spp.); assay: Test A preemergence; details: 0 to 100 scale
# Method in brief: as §2
# [10] = system: pigweed (Amaranthus retroflexus); assay: Test A preemergence; details: Amaranthus retroflexus, pre-emergence, 240 h, 0 to 100 scale, read-out: Plant response rating, Pigweed
# Method in brief: as §2
# [11] = system: velvetleaf (Abutilon theophrasti); assay: Test A preemergence; details: 0 to 100 scale
# Method in brief: as §2
# [12] = system: wheat (Triticum aestivum); assay: Test A preemergence; details: 0 to 100 scale
# Method in brief: as §2
# [13] = system: barnyardgrass (Echinochloa crus-galli); assay: Test A postemergence; details: Echinochloa crus-galli, post-emergence, 240 h, 0 to 100 scale, read-out: Plant response rating, Barnyardgrass
# Method in brief: as §2
# [14] = system: corn (Zea mays); assay: Test A postemergence; details: Zea mays, post-emergence, 240 h, 0 to 100 scale
# Method in brief: as §2
# [15] = system: giant foxtail (Setaria faberii); assay: Test A postemergence; details: Setaria faberi, post-emergence, 240 h, 0 to 100 scale, read-out: Plant response rating, Foxtail, Giant
# Method in brief: as §2
# [16] = system: large (Lg) crabgrass (Digitaria sanguinalis); assay: Test A postemergence; details: 0 to 100 scale
# Method in brief: as §2
# [17] = system: morningglory (Ipomoea spp.); assay: Test A postemergence; details: 0 to 100 scale
# Method in brief: as §2
# [18] = system: pigweed (Amaranthus retroflexus); assay: Test A postemergence; details: Amaranthus retroflexus, post-emergence, 240 h, 0 to 100 scale, read-out: Plant response rating, Pigweed
# Method in brief: as §2
# [19] = system: velvetleaf (Abutilon theophrasti); assay: Test A postemergence; details: 0 to 100 scale
# Method in brief: as §2
# [20] = system: wheat (Triticum aestivum); assay: Test A postemergence; details: Triticum aestivum, post-emergence, 240 h, 0 to 100 scale, read-out: Plant response rating, Wheat
# Method in brief: as §2
# [21] = system: barnyardgrass (Echinochloa crus-galli); assay: Test C flooded paddy; details: Flood, scale 0 to 100
# Text: (§3) At time of treatment, test pots were flooded to 3 cm above the soil surface, treated by application of test compounds directly to the paddy water, and then maintained at that water depth for the duration of the test. Treated plants and controls were maintained in a greenhouse for 13 to 15 days, after which time all species were compared to controls and visually evaluated. […] A dash (-) response means no test result.
# [22] = system: ducksalad (Heteranthera limosa); assay: Test C flooded paddy; details: Flood, scale 0 to 100
# Text: as §3
# [23] = system: rice (Oryza sativa); assay: Test C flooded paddy; details: Flood, scale 0 to 100
# Text: as §3
# [24] = system: sedge, umbrella (small-flower umbrella sedge, Cyperus difformis); assay: Test C flooded paddy; details: Flood, scale 0 to 100
# Text: as §3
compound,measurement,setting,value
"N#Cc1cccc(Oc2ncc(Br)cn2)c1Oc1ncc(Br)cn1 [Compound 1, 2,3-bis[(5-bromo-2-pyrimidinyl)oxy]benzonitrile]",pest or weed control at 250 g/ha,[1],40%
same,pest or weed control at 250 g/ha,[2],90%
same,plant injury at 250 g/ha,[3],0%
same,pest or weed control at 250 g/ha,[4],95%
same,pest or weed control at 125 g/ha,[5]; 125 g ai/ha,70%
same,pest or weed control at 500 g/ha,[5]; 500 g ai/ha,90%
same,"Plant response rating, Corn",[6]; 125 g ai/ha,20
same,"Plant response rating, Corn",[6]; 500 g ai/ha,60
same,pest or weed control at 125 g/ha,[7]; 125 g ai/ha,90%
same,pest or weed control at 500 g/ha,[7]; 500 g ai/ha,100%
same,"Plant response rating, Crabgrass, Large",[8]; 125 g ai/ha,100
same,"Plant response rating, Crabgrass, Large",[8]; 500 g ai/ha,100
same,"Plant response rating, Morningglory",[9]; 125 g ai/ha,30
same,"Plant response rating, Morningglory",[9]; 500 g ai/ha,100
same,pest or weed control at 125 g/ha,[10]; 125 g ai/ha,100%
same,pest or weed control at 500 g/ha,[10]; 500 g ai/ha,100%
same,"Plant response rating, Velvetleaf",[11]; 125 g ai/ha,70
same,"Plant response rating, Velvetleaf",[11]; 500 g ai/ha,100
same,"Plant response rating, Wheat",[12]; 125 g ai/ha,20
same,"Plant response rating, Wheat",[12]; 500 g ai/ha,60
same,pest or weed control at 125 g/ha,[13]; 125 g ai/ha,70%
same,pest or weed control at 500 g/ha,[13]; 500 g ai/ha,90%
same,"Corn plant response rating (crop injury, 0 = no effect, 100 = complete kill) at 125 g/ha",[14]; 125 g ai/ha,30%
same,"Corn plant response rating (crop injury, 0 = no effect, 100 = complete kill) at 500 g/ha",[14]; 500 g ai/ha,80%
same,pest or weed control at 125 g/ha,[15]; 125 g ai/ha,70%
same,pest or weed control at 500 g/ha,[15]; 500 g ai/ha,90%
same,"Plant response rating, Crabgrass, Large",[16]; 125 g ai/ha,60
same,"Plant response rating, Crabgrass, Large",[16]; 500 g ai/ha,100
same,"Plant response rating, Morningglory",[17]; 125 g ai/ha,30
same,"Plant response rating, Morningglory",[17]; 500 g ai/ha,30
same,pest or weed control at 125 g/ha,[18]; 125 g ai/ha,100%
same,pest or weed control at 500 g/ha,[18]; 500 g ai/ha,100%
same,"Plant response rating, Velvetleaf",[19]; 125 g ai/ha,70
same,"Plant response rating, Velvetleaf",[19]; 500 g ai/ha,90
same,plant injury at 125 g/ha,[20]; 125 g ai/ha,30%
same,plant injury at 500 g/ha,[20]; 500 g ai/ha,60%
same,"Plant response rating, Barnyardgrass",[21]; 31 g ai/ha,0
same,"Plant response rating, Barnyardgrass",[21]; 62 g ai/ha,0
same,"Plant response rating, Barnyardgrass",[21]; 125 g ai/ha,0
same,"Plant response rating, Barnyardgrass",[21]; 250 g ai/ha,0
same,"Plant response rating, Ducksalad",[22]; 31 g ai/ha,0
same,"Plant response rating, Ducksalad",[22]; 62 g ai/ha,0
same,"Plant response rating, Ducksalad",[22]; 125 g ai/ha,50
same,"Plant response rating, Ducksalad",[22]; 250 g ai/ha,80
same,"Plant response rating, Rice",[23]; 31 g ai/ha,0
same,"Plant response rating, Rice",[23]; 62 g ai/ha,0
same,"Plant response rating, Rice",[23]; 125 g ai/ha,0
same,"Plant response rating, Rice",[23]; 250 g ai/ha,0
same,"Plant response rating, Sedge, Umbrella",[24]; 31 g ai/ha,0
same,"Plant response rating, Sedge, Umbrella",[24]; 62 g ai/ha,30
same,"Plant response rating, Sedge, Umbrella",[24]; 125 g ai/ha,65
same,"Plant response rating, Sedge, Umbrella",[24]; 250 g ai/ha,80

# From US20170190671A1, “BIS(ARYL)CATECHOL DERIVATIVES AS HERBICIDES” (E I DU PONT DE NEMOURS AND COMPANY, priority 2014, published 2017)
